{"source": "patent US10191050B2", "about": "“Rationale, methods, and assays for identifying human and non-human primate taste specific genes and use thereof in taste modulator and therapeutic screening assays” (SENOMYX, INC., priority 2007, dated 2019)", "test_system": "perceived human salt intensity", "assay": "Human salty taste test: effect on perceived salt intensity (experiments by the inventors)", "type": "in vivo", "excerpt": "Unlike other mammals, amiloride only slightly reduces the intensity of sodium chloride taste, i.e., by about 15-20% when used at concentrations that specifically modulate ENaC function (Halpern, B. P. (1998) Neuroscience and Behavioral Reviews. 23: 5-47). […] Thus, additional non-ENaC genes are likely involved in human salty taste.", "data": [{"compound": "N=C(N)NC(=O)c1nc(Cl)c(N)nc1N", "note": "[amiloride]", "values": [{"measurement": "effect on perceived human salt intensity", "setting": "tested at 300-fold above IC50 for alpha beta gamma ENaC (10-fold over IC50 for delta beta gamma ENaC)", "value": "did not elicit a significant effect"}]}, {"compound": "NC(=Nc1ccccc1)NC(=O)c1nc(Cl)c(N)nc1N", "note": "[phenamil]", "values": [{"measurement": "effect on perceived human salt intensity", "setting": "tested at 3000-fold above IC50 for alpha beta gamma ENaC (100-fold over IC50 for delta beta gamma ENaC)", "value": "did not elicit a significant effect"}]}]}
